According to patent US20130261130A1, “NEUROTRYPSIN INHIBITORS” (priority 2010, published 2013):
Where a name gives a salt, the structure may show the parent alone.

Columns and labels:
[1] = Effect of compound on body weight in mice; format: in vivo, C57/BL6 mice; settings: 25 mg/kg active ingredient, three intraperitoneal injections
Description: (§1) Adult (P50) C57/BL6 mice from Charles River were used for the experiments. All animal experiments are performed in accordance with international guidelines for proper conduct of animal experiment under jurisdiction of the Swiss law (Permit number ZH-18/2008). For every mouse in the experiment the well-being during the interventions is documented in a score sheet.
The mice are housed under optimal hygienic conditions (OHB) with controlled air-conditioning and lighting (temperature: 20-24° C., humidity: 55-65%, day/night cycle: 12 h/12 h, lights on 7 a.m.). Individually ventilated cages of type II, L (530 cm^2 floor space) with standard litter are used. A maximum of 6 mice is kept in each cage. Mice are fed with standard rodent chow (Extrudat, KLIBA NAFAG) ad libitum and have free access to drinking water. Animal colony is managed and maintained at BioSupport, Schlieren.
(§2) Example 119, mono-lysine salt, was prepared for the dosing as suspension in 20% DMSO, 80% PBS with a final concentration of 2.5 mg/ml active compound (corresponding to 3.13 mg/ml of the lysine salt). First, compound of Example 119, mono-lysine salt, was dissolved in DMSO at a concentration of 15.7 mg/ml. Then sterile PBS was added to get a final concentration of 3.13 mg/ml and the suspension was thoroughly vortexed. The suspension was kept at room temperature in the dark until used.
(§3) 5 adult mice were treated with 10 ml/kg of a 3.13 mg/ml suspension of Example 119, mono-lysine salt. This corresponds to a dose of 25 mg/kg active ingredient. As vehicle control 5 mice were treated with 10 ml/kg of 20% DMSO in PBS. Each mouse received three intraperitoneal injections. Between dose 1 and dose 2 there were 8 h, between dose 2 and dose 3 16 h. 5 h after the last injection the mice were euthanatized with CO2.
(§4) Before the first injection the mice were weighted and ˜100 μl of blood was collected from the lateral tail vein. Serum was prepared with centrifugation of blood samples in Microvette 500 Z-Gel tubes (10'000 g, 20° C., 5 min). […]

[2] = system: C-terminal agrin fragment (CAF); test: Analysis of serum CAF levels by western blotting; format: in vivo, C57/BL6 mice
Description: as §1, §2, §3
as §4, with “min). Supernatant was transferred to an Eppendorf reaction tube and centrifuged again (21'000 g, 20° C., 5 min). Supernatant was transferred to screw top reaction tubes and the serum was stored at −20° C. until analysis.” for “min).”
After staining for CAF the membrane was washed thoroughly and reused for a staining for endogenous mouse antibodies that served as loading control. […] After imaging with a Stella imaging system (Raytest) the intensity of the CAF bands was measured with AIDA picture analysis software (Raytest) and normalized to the loading levels determined from mouse antibody light chains. […]

human neurotrypsin = biological target: T1, human neurotrypsin (Homo sapiens, UniProt P56730); test: Determination of IC50 for human neurotrypsin; format: biochemical; settings: human neurotrypsin; method of WO 2006/1103261; read-out: Neurotrypsin IC50
T1 sequence (P56730 21-875): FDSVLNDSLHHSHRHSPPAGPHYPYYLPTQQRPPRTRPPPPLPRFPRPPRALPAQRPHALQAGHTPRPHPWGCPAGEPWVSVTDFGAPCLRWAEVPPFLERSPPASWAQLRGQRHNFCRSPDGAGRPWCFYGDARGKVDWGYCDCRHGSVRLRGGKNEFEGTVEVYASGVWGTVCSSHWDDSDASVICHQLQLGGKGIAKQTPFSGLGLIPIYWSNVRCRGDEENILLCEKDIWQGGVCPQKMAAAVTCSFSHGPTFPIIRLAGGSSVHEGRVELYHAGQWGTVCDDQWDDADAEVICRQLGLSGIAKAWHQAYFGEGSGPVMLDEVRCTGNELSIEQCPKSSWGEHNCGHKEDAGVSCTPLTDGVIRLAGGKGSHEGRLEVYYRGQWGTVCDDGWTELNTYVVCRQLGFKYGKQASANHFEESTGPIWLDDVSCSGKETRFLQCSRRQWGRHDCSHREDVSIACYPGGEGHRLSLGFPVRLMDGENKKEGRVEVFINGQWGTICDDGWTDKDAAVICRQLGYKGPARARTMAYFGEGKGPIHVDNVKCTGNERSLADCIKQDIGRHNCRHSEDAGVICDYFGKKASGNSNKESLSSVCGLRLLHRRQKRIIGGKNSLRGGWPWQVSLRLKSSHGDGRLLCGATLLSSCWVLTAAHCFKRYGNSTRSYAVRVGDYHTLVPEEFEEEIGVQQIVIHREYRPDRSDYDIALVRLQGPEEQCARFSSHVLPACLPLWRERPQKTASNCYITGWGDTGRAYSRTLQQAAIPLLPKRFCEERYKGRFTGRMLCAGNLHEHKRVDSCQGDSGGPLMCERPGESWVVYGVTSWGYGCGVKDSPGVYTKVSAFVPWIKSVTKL
Description: Assessment of the potency of compounds of examples 1-311 in inhibiting the enzymatic activity of human neurotrypsin was performed according to the method described in patent application WO 2006/1103261

Molecule | IC50 (human neurotrypsin) | other results
O=C(Nc1ccc(Cl)cc1)c1ccc(NC(=O)c2ccc(-c3nc4cc(Cl)c(Cl)cc4[nH]3)cc2)c(C(=O)O)c1 [Example 119, mono-lysine salt] | – | increase in weight loss compared to the vehicle control ([1]; adult mice): does not produce any increase in weight loss compared to the vehicle control; Weight loss ([1]; adult mice, post-treatment/pre-treatment weight): < 10%; Average weight loss (% of T = 0 weigth) ([1]; mice, weighed before first injection and 5 h after last, n=5): 5.52 % of T = 0 weigth; CAF levels Average (AU) ([2]; pooled mouse serum, western blot, post-treatment, 25 mg/kg i.p. x3, normalized to loading control, KO background subtracted): 0.38 AU; CAF levels Average (% of vehicle) ([2]; pooled mouse serum, western blot, post-treatment, 25 mg/kg i.p. x3, normalized to the vehicle level): 56.15 % of vehicle; CAF levels ([2]; serum, pooled samples, mice, 25 mg/kg active ingredient, three intraperitoneal injections, 5 h after last injection, mean ± standard deviation): 56.2%±29.0 % of vehicle control
CC(C)(C)Oc1ccc(NC(=O)c2ccc(C(=O)O)c(NC(=O)c3sc4ccccc4c3Cl)c2)cc1 [Example 78] | 19.2 µM | –
N-(5-(5-Chloro-1,3-thiazol-2-ylcarbamoyl)-2-(2H-tetrazol-5-yl)phenyl)-5-phenyl-thiophene-2-carboxamide [Example 228] | 6.6 µM | –
O=C(Nc1ccc(Oc2cccnc2)cc1)c1ccc(C(=O)O)c(NC(=O)c2sc3ccccc3c2Cl)c1 [Example 84] | 4.8 µM | –
O=C(Nc1ccc(Cl)cc1F)c1ccc(NC(=O)c2ccc(-c3nc4cc(Cl)c(Cl)cc4[nH]3)cc2)c(C(=O)O)c1 [Example 51, 5-(4-Chloro-2-fluorophenyl-carbamoyl)-2-(4-(5,6-dichloro-1H-benzo[d]-imidazol-2-yl)benzamido)-benzoic acid] | 0.5 µM | –
O=C(O)c1ccc(C(=O)N2CCC(O)(c3ccc(Cl)c(C(F)(F)F)c3)CC2)cc1NC(=O)c1sc2ccccc2c1Cl [Example 151, 4-(4-(4-Chloro-3-(trifluoro-methyl)phenyl)-4-hydroxy-piperidine-1-carbonyl)-2-(3-chlorobenzo[b]thiophene-2-carboxamido)benzoic acid] | 2.7 µM | –
O=C(NCc1ccccc1)c1ccc(NC(=O)c2ccc(-c3nc4cc(Cl)c(Cl)cc4[nH]3)cc2)c(C(=O)O)c1 [Example 132] | 5.3 µM | –
O=C(Nc1ccc(C(=O)N2CCC(c3ccccc3)CC2)cc1C(=O)O)c1cc2ccc(Cl)cc2s1 [Example 163, 2-(6-Chlorobenzo[b]-thiophene-2-carboxamido)-5-(4-phenylpiperidine-1-carbonyl)benzoic acid] | 2.6 µM | –
O=C(Nc1ccc(Sc2ccc(Cl)cc2)cc1C(=O)O)c1ccc(-c2ccc(Cl)cc2)s1 [Example 293] | 8.7 µM | –
O=C(O)c1cc(NC(=O)c2sc3ccccc3c2Cl)ccc1C(=O)Nc1ccc(Cl)cc1 [Example 270, 5-(3-Chlorobenzo[b]thiophene-2-carboxamido)-2-(4-chlorophenyl-carbamoyl)benzoic acid] | 22.9 µM | –
O=C(Nc1ccc(C(=O)NC2CCCCC2)cc1C(=O)O)c1ccc(-c2nc3cc(Cl)c(Cl)cc3[nH]2)cc1 [Example 125] | 3.5 µM | –
O=C(O)c1ccc(C(=O)N2CCC(c3ccccc3)C2)cc1NC(=O)c1sc2ccccc2c1Cl (centres unmarked) [Example 103] | 4.1 µM | –
O=C(NC12CC3CC(CC(C3)C1)C2)c1ccc(C(=O)O)c(NC(=O)c2sc3ccccc3c2Cl)c1 [Example 33, 2-(3-Chlorobenzo[b]-thiophene-2-carboxamido)-4-(adamantylcarbamoyl)-benzoic acid] | 4.5 µM | –
CC(C)CCN(C)C(=O)c1ccc(NC(=O)c2ccc(-c3nc4cc(Cl)c(Cl)cc4[nH]3)cc2)c(C(=O)O)c1 [Example 43, 2-(4-(5,6-Dichloro-1H-benzo[d]imidazol-2-yl)-benzamido)-5-(N-isopentyl-N-methylcarbamoyl)benzoic acid] | 3.9 µM | –
O=C(O)c1cc(C(=O)N2CCC(c3ccc(Cl)cc3)CC2)ccc1NC(=O)c1sc2ccccc2c1Cl [Example 115] | 3.1 µM | –
Cc1cccc(C)c1C1CCN(C(=O)c2ccc(NC(=O)c3sc4ccccc4c3Cl)c(C(=O)O)c2)CC1 [Example 121] | 4.9 µM | –
O=C(Nc1ccc(Cl)cc1)c1ccc(C(=O)O)c(NC(=O)c2sc3ccccc3c2Cl)c1 [Example 1, 2-(3-Chlorobenzo[b]thiophene-2-carboxamido)-4-(4-chlorophenylcarbamoyl)-benzoic acid] | 8.5 µM | –
N#Cc1ccc(-c2ccc(C(=O)O)c(NC(=O)c3ccc(-c4nc5cc(Cl)c(Cl)cc5[nH]4)cc3)c2)cc1 [Example 267] | 0.5 µM | –
